One assay concerns the target T1, CCR2 (Homo sapiens, UniProt P41597).
T1 sequence (P41597 1-360 isoform P41597-2): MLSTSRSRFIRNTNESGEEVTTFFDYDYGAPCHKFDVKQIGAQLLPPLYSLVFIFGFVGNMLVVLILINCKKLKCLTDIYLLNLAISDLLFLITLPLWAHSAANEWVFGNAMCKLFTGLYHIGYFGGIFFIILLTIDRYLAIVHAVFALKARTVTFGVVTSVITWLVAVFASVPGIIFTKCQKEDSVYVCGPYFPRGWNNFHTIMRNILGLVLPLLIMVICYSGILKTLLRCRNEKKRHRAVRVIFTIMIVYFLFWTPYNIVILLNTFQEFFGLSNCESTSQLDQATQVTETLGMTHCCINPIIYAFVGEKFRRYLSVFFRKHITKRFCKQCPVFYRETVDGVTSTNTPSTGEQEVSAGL
Nature of the assay: Surface plasmon resonance binding to CCR2. Particulars: SPR. (In general: In SPR one partner is held on a chip, and binding of the other changes the refractive index at the surface.)

For assay [1], the system named is LLC (Lewis lung cancer) cells. Nature of the assay: Subcutaneous tumor growth model (LLC). The class given is in vivo, mouse. Particulars: 0.8 mg/g in feed, oral, Day 4 to Day 11, vs control group. Here is the method:
For evaluation of the subcutaneous tumor growth, LLC (Lewis lung cancer) cells (5×10^5) were suspended in 50 μL of PBS, and subcutaneously administered to the right abdomen of each mouse. The tumor size was measured using a caliper twice a week. The tumor volume was calculated according to the following equation. Tumor volume=(tumor shorter diameter)^2×tumor longer diameter/2 In order to investigate the antitumor effect in the subcutaneous tumor growth model, disulfiram was added in an amount of 0.8 mg/g to CE-2 powder feed (CLEA Japan, Inc.) supplemented with 5% sucrose (Wako), and the mice were fed therewith every day during the period from Day 4 to Day 11 post tumor inoculation. The control group was fed with a feed supplemented with the same amount of sucrose.

The test system of assay [2] is B16F10 melanoma cells. Nature of the assay: Lung metastasis model (B16F10). The assay is classed as in vivo, mouse. The settings on record: B16F10 via tail vein, Day 9 post tumor administration. Here is the method: To provide a lung metastasis model, 1×10^6 B16F10 melanoma cells were suspended in 200 μL of PBS, and administered from the tail vein of each of wild-type C57BL/6 mice. Administration of the inhibitor was carried out one day before, 30 minutes before, and one day after the tumor administration. To provide a control, DMSO and a pyrimidine fluoride anticancer drug 5-FU were administered. The mice were euthanized on Day 9 post tumor administration, and PBS was perfused from the left ventricle, followed by isolation of lungs. Visible lung metastatic lesions in the left lobe were counted.

Assay [3] relates to B16F10 melanoma cells. Nature of the assay: WST-1 proliferation assay, B16F10 melanoma cells. Particulars: WST-1, 48 hours. The assay is classed as cell-based. Here is the method:
The cytotoxicity of inhibitors was tested by using LDH Cytotoxicity Detection Kit (TaKaRa) according to the manufacturer's instructions. Briefly, tumor cells were cultured in the presence or absence of an agent (disulfiram or 5FU) for 72 hours, and the culture supernatant was then collected and tested for the concentration of lactate dehydrogenase released from damaged cells. For measurement of cell proliferation, cells were incubated in a plate well together with an inhibitor for 48 hours. During the last 30 minutes, WST-1 (Dojindo Laboratories) was added to the culture liquid, and the absorbance of each well was measured at 450 nm versus 650 nm reference using EnVision (PerkinElmer) to detect the formazan level.
Background: Formazan colour is commonly taken as a measure of viable cells.

In assay [4] the test system is human leukocyte cell line THP-1. Nature of the assay: In vitro chemotaxis assay, THP-1. The class given is cell-based. Particulars: THP-1, concentration without cytotoxicity. Here is the method:
A human leukocyte cell line THP-1 was counted and resuspended in Boyden buffer (RPMI medium supplemented with 0.1% BSA), and the cells were preincubated with disulfiram before the chemotaxis assay. The cell migration activity was measured using a 96-well ChemoTX Chemotaxis Chamber (Neuro probe) with a polycarbonate filter with a pore size of […] Chemokine was applied to the lower chamber of the plate, and the cells were applied to the upper chamber. After incubation at 37° C. in 5% CO2 for 90 minutes, the filter was removed, and the number of migrated cells in the lower chamber was counted using Cell Counting Kit F (Dojindo Laboratories).

Another assay relates to B16 melanoma cells. Nature of the assay: Combined use with anti-PD-1 antibody, B16 tumor-bearing model. The class given is in vivo, mouse. The settings on record: DSF in feed from Day 4, anti-PD-1 antibody 0.2 mg i.p. x4. Here is the method:
To provide an example of combined use of an anticancer drug and disulfiram (DSF), the effect of combined use of an anti-PD-1 antibody, which is an anticancer drug targeting an immune checkpoint molecule, and DSF was studied using an LLC tumor-bearing model and a B16 tumor-bearing model. The B16 tumor-bearing model was prepared by transplanting 5×10^5 B16 melanoma cells to the right abdomen of each of wild-type C57BL/6 mice. Preparation of the LLC tumor-bearing model was carried out in the same manner as in the above-described section 3. A feed supplemented with DSF was provided in the same manner as in the above-described section 3.
The day of the transplantation of the tumor cells to the mice was defined as Day 0. From Day 4, the mice were fed with the feed supplemented with DSF or a control feed every day during the experimental period. An anti-PD-1 antibody (J43, manufactured by BioXcell) was intraperitoneally administered once at a dose of 0.2 mg on each of Day 5, Day 8, Day 14, and Day 18 (four times in total). To provide a control for the antibody administration, PBS was intraperitoneally administered. The tumor size was measured using a caliper twice a week, and the tumor volume was calculated.

In the case of `CCN(CC)C(=S)SSC(=S)N(CC)CC` [DSF, disulfiram], the “binding to CCR2” value on CCR2 is on record as “did not bind”. The tumor volume entry in assay [1] is “significantly smaller”. Further, the “formation of lung metastatic lesions” value in the assay with B16F10 melanoma cells [2] (listed as Disulfiram) was “significantly reduced”; in the assay with B16F10 melanoma cells [2] (listed as disulfiram) it was “effectively reduced”. Besides, in the assay on B16F10 melanoma cells [3], the “growth-inhibiting action on B16F10 melanoma cells” value is “did not show any action”. Also, in assay [4], the “cell migration mediated by CCL2” value is on record as “inhibited”. The “inhibitory effect on cancer hyperplasia (tumor volume)” value with B16 melanoma cells is “not observed at a significant level”.

The values are drawn from patent US10722480B2, “Agent for controlling cells constituting cancer microenvironment or inflammatory microenvironment” (The University of Tokyo, priority 2015, dated 2020).
